Data from publication PMC8379256, “A xanthene derivative, DS20060511, attenuates glucose intolerance by inducing skeletal muscle-specific GLUT4 translocation in mice” (Communications Biology, 2021).
Values joined by “and” are separate entries in the source; they are usually repeats but may differ in a detail not shown here. Equal values may be shown once.

Tested on: C57BL/6 mice
Experiment: Indirect calorimetry and exercise endurance under stepwise treadmill running
Type: in vivo, mouse
Details: 30 mg/kg; for Respiratory quotient / CO2 Production (VCO2) / O2 Consumption (VO2): DS20060511 30 mg/kg, individual mice 1-7, Fig. 5a
Description: The mice were acclimatized to the treadmill by allowing them to run at 10 m min^−1 for 10 min on the day before the test. On the day of the test, the mice received oral administration of 30 mg kg^−1 of DS20060511 or vehicle 15 min before they were made to run. The treadmill was started at a velocity of 10 m min^−1, with the speed increased stepwise by 2 m min^−1 every 3 min, to assess the exercise endurance capacity as described previously. Measurements of the oxygen consumption (VO2) and exhaled carbon dioxide (VCO2) under treadmill running were conducted with the ARCO-2000 magnetic-type mass spectrometric calorimeter (ARCO System, Kashiwa, Japan) connected to the treadmill chamber (MB-2000, ARCO System). The RER was calculated as the VCO2/VO2 ratio and the substrate utilization rates were calculated using Frayn’s formula[51]: rate of glucose oxidation = 4.585VCO2 − 3.226VO2; rate of fat oxidation = 1.695VO2 − 1.701VCO2. The exercise endurance capacity under treadmill running was determined by measuring the time from the start to the time until the mice ceased to run because of exhaustion, which was defined as remaining on the shocker plate for more than 10 sec. Immediately after the exercise, the blood glucose and lactate levels were measured using Glutest Every and Lactate Pro2 (ARKRAY, Kyoto, Japan), respectively, in blood samples collected from the tail vein.

For `COc1ccc2c(C)c(C(=O)O)ccc2c1C1C2=C(CC(C)(C)CC2=O)OC2=C1C(=O)CC(C)(C)C2` [DS20060511], the Respiratory quotient (2 min) was 0.76 (2×) and 0.78 and 0.75 and 0.82 (2×) and 0.79, the “CO2 Production (VCO2)” value (3 min) was 92.0 mL/min/kg and 71.1 mL/min/kg and 77.7 mL/min/kg and 83.7 mL/min/kg and 70.1 mL/min/kg and 74.8 mL/min/kg and 73.0 mL/min/kg and the “O2 Consumption (VO2)” value (3 min) was 103.2 mL/min/kg and 101.7 mL/min/kg and 88.1 mL/min/kg and 95.2 mL/min/kg and 94.7 mL/min/kg and 120.2 mL/min/kg and 89.5 mL/min/kg. For the same compound, the Respiratory quotient (3 min) was 0.77 (2×) and 0.79 (2×) and 0.75 and 0.82 and 0.80, the “CO2 Production (VCO2)” value (4 min) was 90.3 mL/min/kg and 73.1 mL/min/kg and 78.3 mL/min/kg and 89.7 mL/min/kg and 70.1 mL/min/kg and 72.9 mL/min/kg and 72.1 mL/min/kg and the “O2 Consumption (VO2)” value (4 min) was 103.7 ml/min/kg and 110.0 ml/min/kg and 106.3 ml/min/kg and 93.1 ml/min/kg (2×) and 117.2 ml/min/kg and 90.4 ml/min/kg. The Respiratory quotient (4 min) was 0.77 (2×) and 0.81 (2×) and 0.75 and 0.66 and 0.78, the “CO2 Production (VCO2)” value (5 min) was 91.5 mL/min/kg and 72.5 mL/min/kg and 78.6 mL/min/kg and 85.8 mL/min/kg and 66.5 mL/min/kg and 73.8 mL/min/kg and 71.7 mL/min/kg and the “O2 Consumption (VO2)” value (5 min) was 103.7 mL/min/kg and 103.8 mL/min/kg and 83.5 mL/min/kg and 95.6 mL/min/kg and 90.5 mL/min/kg and 116.5 mL/min/kg and 90.3 mL/min/kg. For the same compound, the Respiratory quotient (5 min) was 0.78 and 0.80 (2×) and 0.76 and 0.83 and 0.77 and 0.79, the “CO2 Production (VCO2)” value (6 min) was 87.9 mL/min/kg and 70.6 mL/min/kg and 76.9 mL/min/kg and 85.9 mL/min/kg and 73.0 mL/min/kg and 71.8 mL/min/kg and 71.2 mL/min/kg and the “O2 Consumption (VO2)” value (6 min) was 100.7 mL/min/kg and 102.8 mL/min/kg and 90.9 mL/min/kg and 93.7 mL/min/kg and 92.0 mL/min/kg and 112.2 mL/min/kg and 87.4 mL/min/kg. For the same compound, the Respiratory quotient (6 min) was 0.78 and 0.81 and 0.76 and 0.84 and 0.80 and 0.77 (2×), the “CO2 Production (VCO2)” value (7 min) was 93.5 mL/min/kg and 69.9 mL/min/kg and 76.8 mL/min/kg and 86.5 mL/min/kg and 72.9 mL/min/kg and 71.9 mL/min/kg and 70.2 mL/min/kg and the “O2 Consumption (VO2)” value (7 min) was 101.1 mL/min/kg and 105.0 mL/min/kg and 90.7 mL/min/kg and 93.7 mL/min/kg and 90.0 mL/min/kg and 120.2 mL/min/kg and 86.5 mL/min/kg. The Respiratory quotient (7 min) was 0.78 (2×) and 0.81 and 0.76 and 0.82 and 0.80 and 0.77, the “CO2 Production (VCO2)” value (8 min) was 88.9 mL/min/kg and 75.0 mL/min/kg and 78.4 mL/min/kg and 85.8 mL/min/kg and 72.7 mL/min/kg and 72.1 mL/min/kg and 69.7 mL/min/kg and the “O2 Consumption (VO2)” value (8 min) was 103.5 mL/min/kg and 107.7 mL/min/kg and 91.4 mL/min/kg and 93.1 mL/min/kg and 101.3 mL/min/kg and 113.1 mL/min/kg and 92.7 mL/min/kg. For the same compound, the Respiratory quotient (8 min) was 0.79 and 0.81 and 0.76 and 0.80 (2×) and 0.77 and 0.69, the “CO2 Production (VCO2)” value (9 min) was 95.5 mL/min/kg and 73.8 mL/min/kg and 77.9 mL/min/kg and 84.5 mL/min/kg and 74.4 mL/min/kg and 71.2 mL/min/kg and 78.8 mL/min/kg and the “O2 Consumption (VO2)” value (9 min) was 100.3 mL/min/kg and 103.6 mL/min/kg and 93.8 mL/min/kg and 94.2 mL/min/kg and 95.0 mL/min/kg and 118.5 mL/min/kg and 89.8 mL/min/kg. The Respiratory quotient (9 min) was 0.81 and 0.82 (2×) and 0.78 and 0.79 and 0.76 and 0.83, the “CO2 Production (VCO2)” value (10 min) was 92.6 ml/min/kg and 70.7 ml/min/kg and 80.1 ml/min/kg and 84.2 ml/min/kg (2×) and 72.0 ml/min/kg and 74.9 ml/min/kg and the “O2 Consumption (VO2)” value (10 min) was 104.6 mL/min/kg and 102.1 mL/min/kg and 90.2 mL/min/kg and 95.3 mL/min/kg and 98.2 mL/min/kg and 113.5 mL/min/kg and 87.0 mL/min/kg. For the same compound, the Respiratory quotient (10 min) was 0.82 (2×) and 0.81 and 0.77 and 0.80 and 0.79 and 0.86, the “CO2 Production (VCO2)” value (11 min) was 96.0 ml/min/kg and 73.8 ml/min/kg and 80.9 ml/min/kg and 84.3 ml/min/kg and 71.1 ml/min/kg (2×) and 86.5 ml/min/kg and the “O2 Consumption (VO2)” value (11 min) was 106.8 mL/min/kg and 102.9 mL/min/kg and 84.9 mL/min/kg and 92.0 mL/min/kg and 101.1 mL/min/kg and 115.1 mL/min/kg and 89.8 mL/min/kg. For the same compound, the Respiratory quotient (11 min) was 0.83 and 0.82 (2×) and 0.76 and 0.84 and 0.77 and 0.85, the “CO2 Production (VCO2)” value (12 min) was 97.3 mL/min/kg and 74.3 mL/min/kg and 80.0 mL/min/kg and 93.2 mL/min/kg and 68.6 mL/min/kg and 70.0 mL/min/kg and 89.3 mL/min/kg and the “O2 Consumption (VO2)” value (12 min) was 103.8 mL/min/kg and 112.5 mL/min/kg and 85.8 mL/min/kg and 91.1 mL/min/kg and 105.1 mL/min/kg and 120.4 mL/min/kg and 90.9 mL/min/kg. The Respiratory quotient (12 min) was 0.81 and 0.82 and 0.77 (2×) and 0.83 and 0.80 and 0.85, the “CO2 Production (VCO2)” value (13 min) was 101.9 mL/min/kg and 82.3 mL/min/kg and 78.0 mL/min/kg and 86.9 mL/min/kg and 68.9 mL/min/kg and 69.6 mL/min/kg and 93.3 mL/min/kg and the “O2 Consumption (VO2)” value (13 min) was 102.8 mL/min/kg and 102.5 mL/min/kg and 86.7 mL/min/kg and 90.5 mL/min/kg and 109.1 mL/min/kg and 127.7 mL/min/kg and 94.9 mL/min/kg. For the same compound, the Respiratory quotient (13 min) was 0.80 and 0.87 and 0.76 and 0.85 and 0.79 and 0.77 and 0.86, the “CO2 Production (VCO2)” value (14 min) was 100.6 mL/min/kg and 80.5 mL/min/kg and 79.5 mL/min/kg and 84.1 mL/min/kg and 69.5 mL/min/kg and 69.8 mL/min/kg and 95.1 mL/min/kg and the “O2 Consumption (VO2)” value (14 min) was 102.1 mL/min/kg and 101.4 mL/min/kg and 88.4 mL/min/kg and 91.3 mL/min/kg and 109.8 mL/min/kg and 125.1 mL/min/kg and 95.0 mL/min/kg. The Respiratory quotient (14 min) was 0.80 and 0.85 and 0.78 and 0.83 and 0.79 and 0.76 and 0.87, the “CO2 Production (VCO2)” value (15 min) was 92.4 mL/min/kg and 82.1 mL/min/kg and 81.9 mL/min/kg and 83.7 mL/min/kg and 69.2 mL/min/kg and 69.5 mL/min/kg and 105.4 mL/min/kg and the “O2 Consumption (VO2)” value (15 min) was 105.0 mL/min/kg and 100.1 mL/min/kg and 87.5 mL/min/kg and 93.8 mL/min/kg and 120.2 mL/min/kg and 115.1 mL/min/kg and 96.2 mL/min/kg. The Respiratory quotient (15 min) was 0.80 and 0.85 and 0.78 and 0.84 and 0.79 and 0.74 and 0.88, the “CO2 Production (VCO2)” value (16 min) was 98.8 mL/min/kg and 82.5 mL/min/kg and the “O2 Consumption (VO2)” value (16 min) was 103.6 mL/min/kg and 108.6 mL/min/kg. The Respiratory quotient (16 min) was 0.79 and 0.85 and the “Blood glucose” value (exercise tolerance test, individual mice) was 124 mg/dL and 146 mg/dL and 95 mg/dL and 96 mg/dL and 149 mg/dL and 133 mg/dL and 119 mg/dL.
